Experimental findings from patent publication US12497642B2, “Incorporation of unnatural nucleotides and methods of use in vivo thereof” (THE SCRIPPS RESEARCH INSTITUTE, priority 2017, dated 2025) are described below.

In data set [1] the target is T1, Klenow fragment of E. coli DNA polymerase I (Escherichia coli, UniProt P00582).
T1 construct: the Klenow fragment of E. coli DNA polymerase I
As to the kind of experiment: Steady-state kinetic assay of unnatural triphosphate insertion. Type of data set: biochemical.

The subject of another data set is OneTaq DNA polymerase. As to the kind of experiment: PCR amplification fidelity of DNA containing a single UBP (UBP retention in vitro). In kind it is biochemical. The following applies: with dTPT3TP, 20 cycles. An excerpt: The fidelity with which DNA containing a single UBP is PCR amplified was explored using OneTaq DNA polymerase. To quantify fidelity, templates containing the dNaM-dTPT3 UBP were amplified with dTPT3TP and dNaMTP, dPTMOTP or dMTMOTP. Two templates were used where the UBP was flanked by different sequence contexts; T1, where X (X=NaM, or after the first round of replication, NaM, PTNO, or MTMO) is flanked by a 5′ dA and a 3′ dT, and which with X=dNaM is well replicated in the SSO, and T2 where X is flanked by a 5′ dC and a 3′ dG, and which with X=dNaM is poorly replicated in the SSO. DNA was amplified for 20 cycles with extension times of either 1 min or 45 s, with the shorter times used to probe amplification efficiency. After amplification, the DNA was purified and UBP retention was characterized via a second PCR amplification using OneTaq and DeepVent DNA polymerases and a biotinylated analog of dNaMTP, whose product was analyzed by PAGE.

For the next data set, the system named is SSO (strain YZ3). As to the kind of experiment: UBP retention in vivo in the SSO (biotin shift assay), Example 2. Type of data set: cell-based, Escherichia coli. From the text:
Thus, to evaluate the UBPs in the in vivo environment of the SSO, Golden Gate assembly was used to construct four derivatives of the pUC19 plasmid containing a single dNaM-dTPT3 UBP, but where it was flanked by one of four different sequence contexts, context 1-4. These sequence contexts show decreasing UBP retention with dNaM-dTPT3. Plasmids were used to transform the SSO (strain YZ3), which was allowed to recover briefly in media containing dTPT3TP and either dNaMTP, dPTMOTP, or dMTMOTP. After transfer to fresh media containing the same triphosphates and ampicillin (to select for plasmid retention), the SSO was allowed to grow to an OD600 of ˜0.7, at which time plasmids were recovered and analyzed for UBP retention the same biotin shift assay described above. FIG. 9 exemplifies the results in vivo.

The test system of data set [2] is semi-synthetic organism (SSO) (strain YZ3). The data set can be described thus: Replication and UBP retention in vivo in the semi-synthetic organism (streptavidin biotin shift, PAGE), Example 1. Type of data set: cell-based, Escherichia coli. The following applies: Table 5, dTPT3TP 25 μM. The protocol:
All bacteria were cultured in 100 μL of liquid 2×YT media (casein peptone 16 g/L, yeast extract 10 g/L, NaCl 5 g/L) supplemented with potassium phosphate (50 mM, pH 7) in 96-well microwell plates. When noted, antibiotics were used at the following concentrations: chloramphenicol, 5 μg/mL; ampicillin, 100 μg/mL. Cell growth, indicated as OD600, was measured using a Perkin Elmer EnVision 2103 Multilabel Reader with a 590/20 nm filter. Unless otherwise stated, molecular biology reagents were purchased from New England Biolabs (Ipswich, MA) and were used according to the manufacturer's protocols. As necessary, purification of nucleic acids was accomplished by micro-elution columns (Zymo Research Corp; Irvine, CA). All natural oligonucleotides were purchased from IDT (San Diego, CA), and oligonucleotides containing dNaM were synthesized by Biosearch Technologies (Petaluma, CA) with purification by reverse phase cartridge. Unnatural nucleotide triphosphates were prepared, and confirmed by MALDI-TOF and UV/Vis.
Plasmids containing the dNaM-dTPT3 UBP were prepared and used to transform the semi-synthetic organism (SSO). To create a template for in vivo replication assays, Golden Gate assembly was used to construct a derivative of the pUC19 plasmid in which a single dNaM-dTPT3 UBP was embedded within the TK1 sequence ([…]; […]), a context within which the UBP is well replicated in the SSO. Plasmids were then used to transform the SSO (strain YZ3). Following transformation, the SSO was allowed to recover at 37° C. for 1 h in media containing dNaMTP (125 μM) and dTPT3TP (25 μM). Cells were pelleted by centrifugation, resuspended in fresh media lacking unnatural triphosphates, split into 100-μL aliquots and then used to inoculate cultures containing different pairs of unnatural triphosphates at the specified concentrations. When the cell density reached an OD600 of ˜0.7, cells were pelleted and plasmids were recovered and PCR amplified with d5SICSTP and a biotinylated analog of dNaMTP, and UBP retention was determined by comparing the intensity of the streptavidin shifted and unshifted bands via PAGE.

The mark [3] stands for this setting: insertion of dXTP opposite dY = dTPT3 in template.
Setting [4] is: template T1 (5′ dA, 3′ dT), extension time 45 s.
[5] abbreviates: template T1 (5′ dA, 3′ dT), extension time 1 min.
[6] abbreviates: template T2 (5′ dC, 3′ dG), extension time 45 s.
Setting [7] is: template T2 (5′ dC, 3′ dG), extension time 1 min.
Setting [8] is: context d(ANaMT) / AXT, dTPT3TP 25 μM, triphosphate 5 μM.
[9] abbreviates: context d(ANaMT) / AXT, dTPT3TP 25 μM, triphosphate 10 μM.
Where [10] appears, read: context d(ANaMT), with dTPT3TP, triphosphate 25 μM.
Where [11] appears, read: context d(ANaMT), with dTPT3TP, triphosphate 150 μM.
Setting [12] is: context d(CNaMC), with dTPT3TP, triphosphate 25 μM.
The mark [13] stands for this setting: context d(CNaMC), with dTPT3TP, triphosphate 150 μM.
The mark [14] stands for this setting: context d(CNaMG), with dTPT3TP, triphosphate 25 μM.
Setting [15] is: context d(CNaMG), with dTPT3TP, triphosphate 150 μM.

Structures are written as SMILES. Several values for one entry are separate records, joined by “and”; a condition that tells them apart may be missing. Equal values may be shown once.

T1 sequence (P00582 324-928): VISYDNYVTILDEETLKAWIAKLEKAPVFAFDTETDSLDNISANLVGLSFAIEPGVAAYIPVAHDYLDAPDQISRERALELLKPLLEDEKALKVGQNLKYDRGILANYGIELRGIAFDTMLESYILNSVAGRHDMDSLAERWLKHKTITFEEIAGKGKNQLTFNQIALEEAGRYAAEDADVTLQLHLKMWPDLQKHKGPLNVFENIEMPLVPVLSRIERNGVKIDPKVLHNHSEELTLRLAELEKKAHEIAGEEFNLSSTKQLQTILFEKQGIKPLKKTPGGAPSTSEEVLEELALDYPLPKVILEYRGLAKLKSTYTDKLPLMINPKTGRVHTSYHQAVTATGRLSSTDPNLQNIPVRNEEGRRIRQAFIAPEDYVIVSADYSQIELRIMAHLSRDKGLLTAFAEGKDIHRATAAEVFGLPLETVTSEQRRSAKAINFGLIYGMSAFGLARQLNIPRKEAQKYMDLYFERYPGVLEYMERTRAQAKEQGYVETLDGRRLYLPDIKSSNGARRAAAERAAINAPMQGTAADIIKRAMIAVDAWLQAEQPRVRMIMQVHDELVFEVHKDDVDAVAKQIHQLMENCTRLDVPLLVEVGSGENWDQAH

For the molecule `COc1cc2ccsc2cc1C1CC(O)C(COP(=O)(O)OP(=O)(O)OP(=O)(O)O)O1` (stereo not shown) [dMTMOTP], the Michaelis-Menten constant (Km) (usually the substrate concentration at which the rate is half of its maximum) in data set [1] (setting [3]) turned out to be 0.22 µM. Besides, in data set [1] (setting [3]), the kcat (as a rule, the maximal rate divided by the concentration of active sites) is 0.142 s⁻¹ and 0.142 ± 0.0283 s⁻¹. Moreover, the “UBP retention after PCR amplification” value was 84% in the data set with OneTaq DNA polymerase (setting [4]), 80% in the data set on OneTaq DNA polymerase (setting [5]), 58% in the data set with OneTaq DNA polymerase (setting [6]) and 58% in the data set with OneTaq DNA polymerase (setting [7]). Besides, the UBP retention is 59% and 59±24% in the data set with SSO (strain YZ3) (setting [8]); 80% and 80±11% in the data set on SSO (strain YZ3) (setting [9]); 96% in the data set with SSO (strain YZ3) (setting [10]); 99% in the data set on SSO (strain YZ3) (setting [11]); 19% in the data set with SSO (strain YZ3) (setting [12]); 62% in the data set on SSO (strain YZ3) (setting [13]). Further, the UBP retention was determined as 5% in the data set on SSO (strain YZ3) (setting [14]) and 8% in the data set with SSO (strain YZ3) (setting [15]).
With `COc1cc2ccccc2cc1[C@H]1C[C@H](O)[C@@H](COP(=O)(O)OP(=O)(O)OP(=O)(O)O)O1` [dNaMTP, reference compound], the “UBP retention (%)” value in data set [2] (sequence context 1 (AXT), dNaMTP or dCNMOTP 25 μM) is 85%; in data set [2] (sequence context 1 (AXT), dNaMTP or dCNMOTP 25 μM, listed as dNaM), 85 ± 10%; in data set [2] (sequence context 1 (AXT), dNaMTP or dCNMOTP 125 μM) it was 99 ± 3%; in data set [2] (sequence context 2 (AXA), dNaMTP or dCNMOTP 25 μM), 36%; in data set [2] (sequence context 2 (AXA), dNaMTP or dCNMOTP 25 μM, listed as dNaM), 36 ± 29%; in data set [2] (sequence context 2 (AXA), dNaMTP or dCNMOTP 125 μM), 73%. Also, the “UBP retention (%)” value was 73 ± 21% in data set [2] (sequence context 2 (AXA), dNaMTP or dCNMOTP 125 μM, listed as dNaM); “no retention” in data set [2] (sequence context 3 (CXC), dNaMTP or dCNMOTP 25 μM); 7 ± 2% in data set [2] (sequence context 3 (CXC), dNaMTP or dCNMOTP 25 μM, listed as dNaM); 26% in data set [2] (sequence context 3 (CXC), dNaMTP or dCNMOTP 125 μM); 26 ± 16% in data set [2] (sequence context 3 (CXC), dNaMTP or dCNMOTP 125 μM, listed as dNaM); “not retained significantly” in data set [2] (sequence context 4 (CXG), dNaMTP or dCNMOTP 25 μM). Moreover, the “UBP retention (%)” value in data set [2] (sequence context 4 (CXG), dNaMTP or dCNMOTP 25 μM, listed as dNaM) is 9 ± 1%; in data set [2] (sequence context 4 (CXG), dNaMTP or dCNMOTP 125 μM), “not retained significantly”; in data set [2] (sequence context 4 (CXG), dNaMTP or dCNMOTP 125 μM, listed as dNaM) it was 13 ± 2%. Besides, in data set [1] (setting [3]), the Km is 0.09 µM. Also, the kcat in data set [1] (setting [3]) was 0.178 s⁻¹. Besides, the “UBP retention after PCR amplification” value came to 95% in the data set with OneTaq DNA polymerase (setting [4]), 100% in the data set with OneTaq DNA polymerase (setting [5]), 85% in the data set with OneTaq DNA polymerase (setting [6]) and 86% in the data set with OneTaq DNA polymerase (setting [7]). Moreover, the UBP retention with SSO (strain YZ3) (setting [8]) is 17% and 17±21%; with SSO (strain YZ3) (setting [9]), 29% and 29±11%; in the data set on SSO (strain YZ3) (setting [10]), 82%; in the data set on SSO (strain YZ3) (setting [11]), 98%; with SSO (strain YZ3) (setting [12]), 7%; in the data set on SSO (strain YZ3) (setting [13]), 44%. For the same molecule, the UBP retention came to 5% with SSO (strain YZ3) (setting [14]) and 6% in the data set on SSO (strain YZ3) (setting [15]).
Regarding `COc1cc2sccc2cc1[C@H]1C[C@H](O)[C@@H](COP(=O)(O)OP(=O)(O)OP(=O)(O)O)O1` [dPTMOTP], the Km in data set [1] (setting [3]) is 0.08 µM. For the same molecule, the kcat in data set [1] (setting [3]) was 0.323 s⁻¹ and 0.323 ± 0.02 s⁻¹. The “UBP retention after PCR amplification” value is reported as 90% in the data set on OneTaq DNA polymerase (setting [4]), 98% in the data set with OneTaq DNA polymerase (setting [5]), 74% in the data set with OneTaq DNA polymerase (setting [6]) and 78% in the data set on OneTaq DNA polymerase (setting [7]). The toxicity to cells result in the data set on SSO (strain YZ3) (SSO cells, concentration matrix 5-150 μM, context CXC) was “not toxic to cells”. Moreover, the “effective concentration can be dropped to” value with SSO (strain YZ3) (context CXC (difficult to replicate sequences)) was 100 µM. Moreover, the “UBP retention (Avg)” value in the data set with SSO (strain YZ3) (context CXC, dPTMOTP 5 μM, dTPT3TP 5 μM) worked out at 7%; in the data set on SSO (strain YZ3) (context CXC, dPTMOTP 5 μM, dTPT3TP 25 μM) it was 7%; with SSO (strain YZ3) (context CXC, dPTMOTP 5 μM, dTPT3TP 100 μM) it was 10%; in the data set on SSO (strain YZ3) (context CXC, dPTMOTP 5 μM, dTPT3TP 150 μM), 7%; in the data set with SSO (strain YZ3) (context CXC, dPTMOTP 25 μM, dTPT3TP 5 μM), 18%; in the data set on SSO (strain YZ3) (context CXC, dPTMOTP 25 μM, dTPT3TP 25 μM), 59%. Besides, the “UBP retention (Avg)” value was determined as 63% with SSO (strain YZ3) (context CXC, dPTMOTP 25 μM, dTPT3TP 100 μM); 47% with SSO (strain YZ3) (context CXC, dPTMOTP 25 μM, dTPT3TP 150 μM); 58% in the data set on SSO (strain YZ3) (context CXC, dPTMOTP 100 μM, dTPT3TP 5 μM); 89% in the data set on SSO (strain YZ3) (context CXC, dPTMOTP 100 μM, dTPT3TP 25 μM); 93% in the data set with SSO (strain YZ3) (context CXC, dPTMOTP 100 μM, dTPT3TP 100 μM); 66% in the data set with SSO (strain YZ3) (context CXC, dPTMOTP 100 μM, dTPT3TP 150 μM). For the same molecule, the “UBP retention (Avg)” value is 61% with SSO (strain YZ3) (context CXC, dPTMOTP 150 μM, dTPT3TP 5 μM); 103% in the data set with SSO (strain YZ3) (context CXC, dPTMOTP 150 μM, dTPT3TP 25 μM); 90% with SSO (strain YZ3) (context CXC, dPTMOTP 150 μM, dTPT3TP 100 μM); 64% in the data set with SSO (strain YZ3) (context CXC, dPTMOTP 150 μM, dTPT3TP 150 μM). The UBP retention in the data set on SSO (strain YZ3) (setting [8]) was 77% and 77±22%; in the data set on SSO (strain YZ3) (setting [9]), 92% and 92±6%; with SSO (strain YZ3) (setting [10]), 99%; in the data set on SSO (strain YZ3) (setting [11]) it was 98%; in the data set with SSO (strain YZ3) (setting [12]), 55%; in the data set with SSO (strain YZ3) (setting [13]), 97%. Besides, the UBP retention in the data set on SSO (strain YZ3) (setting [14]) is 2%; in the data set on SSO (strain YZ3) (setting [15]), 7%.
As for `Cc1cn([C@H]2C[C@H](O)[C@@H](COP(=O)(O)OP(=O)(O)OP(=O)(O)O)O2)c(=O)[nH]c1=O` [dTTP, reference compound], the catalytic constant (kcat) in data set [1] (insertion opposite dY = dA in template) is 0.085 s⁻¹ and 0.0853 ± 0.0127 s⁻¹.
